Common to all, as to type: functional
Assay [1] has as its system Candida albicans. Kind of assay: Antifungal activity against Candida albicans Y0109 after 24 hrs by microbroth dilution method. As to conditions: Y0109, 24 h. (In general: Dilution methods test growth across graded concentrations, often in twofold steps.)
Assay [2] relates to Candida tropicalis. Kind of assay: Antifungal activity against Candida tropicalis by microbroth dilution method.
A further assay concerns Candida parapsilosis. The assay can be described thus: Antifungal activity against Candida parapsilosis by microbroth dilution method. The settings on record: Lodderomyces parapsilosis.
For the next assay, the system named is Trichophyton rubrum. The assay can be described thus: Antifungal activity against Trichophyton rubrum by microbroth dilution method.
The next assay deals with Cryptococcus neoformans. The assay can be described thus: Antifungal activity against Cryptococcus neoformans after 72 hrs by microbroth dilution method.
The test system of assay [3] is Candida albicans. Kind of assay: Antifungal activity against Candida albicans SC5314 after 24 hrs by microbroth dilution method. As to conditions: SC5314, 24 h.
Assay [4] relates to Kluyveromyces marxianus. Kind of assay: Antifungal activity against Candida kefyr by microbroth dilution method.
The next assay deals with Aspergillus fumigatus. Kind of assay: Antifungal activity against Aspergillus fumigatus by microbroth dilution method.
The subject of assay [5] is Candida tropicalis. The assay can be described thus: Ratio of MIC80 for fluconazole to compound for Candida tropicalis by microbroth dilution method.
The test system of assay [6] is Kluyveromyces marxianus. Kind of assay: Ratio of MIC80 for fluconazole to compound for Candida kefyr by microbroth dilution method.
The subject of assay [7] is Candida albicans. Kind of assay: Ratio of MIC80 for fluconazole to compound for Candida albicans SC5314 after 24 hrs by microbroth dilution method.

≈ marks a conversion by molar mass, not a printed value.

`OC(Cc1cn(Cc2ccc(F)c(F)c2)nn1)(Cn1cncn1)c1ccc(F)cc1F` (centres undefined): the MIC80 (commonly an inhibitory concentration at the 80% level, which refers to growth in some studies and to a panel of isolates in others) is 0.125 µg/mL (≈ 0.289 µM) with Candida albicans [1]; 0.125 µg/mL (≈ 0.289 µM) with Candida tropicalis [2]; 0.125 µg/mL (≈ 0.289 µM) against Candida parapsilosis; 0.25 µg/mL (≈ 0.578 µM) with Trichophyton rubrum; 1 µg/mL (≈ 2.31 µM) against Cryptococcus neoformans; 0.25 µg/mL (≈ 0.578 µM) against Candida albicans [3]. Also, the values for the MIC80 in the assay on Kluyveromyces marxianus [4] and in the assay on Aspergillus fumigatus were 0.25 µg/mL (≈ 0.578 µM) and 16 µg/mL (≈ 37 µM), respectively. In addition, the Ratio with Candida tropicalis [5] is on record as 16; in the assay with Kluyveromyces marxianus [6], 64.

For the compound `Cc1ccc(Cn2cc(CC(O)(Cn3cncn3)c3ccc(F)cc3F)nn2)cc1` (centres undefined), the MIC80 in the assay on Candida albicans [1] came to 0.0039 µg/mL (≈ 0.0095 µM); against Candida tropicalis [2], 0.125 µg/mL (≈ 0.305 µM); in the assay with Candida parapsilosis, 0.0625 µg/mL (≈ 0.152 µM); against Trichophyton rubrum, 0.0625 µg/mL (≈ 0.152 µM); with Cryptococcus neoformans, 0.125 µg/mL (≈ 0.305 µM); in the assay on Candida albicans [3], 0.0156 µg/mL (≈ 0.038 µM). Also, the MIC80 turned out to be 0.0156 µg/mL (≈ 0.038 µM) in the assay on Kluyveromyces marxianus [4] and 2 µg/mL (≈ 4.87 µM) against Aspergillus fumigatus. The Ratio with Kluyveromyces marxianus [6] amounted to 256; in the assay with Candida albicans [7], 128.

With `O=[N+]([O-])c1ccccc1Cn1cc(CC(O)(Cn2cncn2)c2ccc(F)cc2F)nn1` (centres undefined), the MIC80 is 0.0625 µg/mL (≈ 0.142 µM) with Candida albicans [1]; 0.125 µg/mL (≈ 0.283 µM) against Candida tropicalis [2]; less than 0.25 µg/mL against Candida parapsilosis; 0.25 µg/mL (≈ 0.566 µM) with Trichophyton rubrum; 0.5 µg/mL (≈ 1.13 µM) in the assay with Cryptococcus neoformans; less than 0.125 µg/mL in the assay with Candida albicans [3]. In addition, the MIC80 with Kluyveromyces marxianus [4] came out at 0.0625 µg/mL (≈ 0.142 µM); in the assay with Aspergillus fumigatus, 32 µg/mL (≈ 72.5 µM).

`N#Cc1ccccc1Cn1cc(CC(O)(Cn2cncn2)c2ccc(F)cc2F)nn1` (centres undefined): the MIC80 was 0.0625 µg/mL (≈ 0.148 µM) in the assay on Candida albicans [1]; 0.125 µg/mL (≈ 0.297 µM) with Candida tropicalis [2]; 0.25 µg/mL (≈ 0.593 µM) in the assay on Candida parapsilosis; 0.25 µg/mL (≈ 0.593 µM) in the assay with Trichophyton rubrum; 0.5 µg/mL (≈ 1.19 µM) in the assay on Cryptococcus neoformans; 0.125 µg/mL (≈ 0.297 µM) against Candida albicans [3]. The figures for the MIC80 against Kluyveromyces marxianus [4] and in the assay on Aspergillus fumigatus were less than 0.125 µg/mL and 16 µg/mL (≈ 38 µM), respectively.

Turning to `OC(Cc1cn(Cc2ccc(F)cc2)nn1)(Cn1cncn1)c1ccc(F)cc1F` (centres undefined), the MIC80 with Candida albicans [1] was 0.0625 µg/mL (≈ 0.151 µM); in the assay with Candida tropicalis [2], 0.25 µg/mL (≈ 0.603 µM); with Candida parapsilosis it was 0.125 µg/mL (≈ 0.302 µM); with Trichophyton rubrum, 0.125 µg/mL (≈ 0.302 µM); against Cryptococcus neoformans, 0.25 µg/mL (≈ 0.603 µM); against Candida albicans [3], less than 0.125 µg/mL. For the same compound, the MIC80 against Kluyveromyces marxianus [4] amounted to 0.0625 µg/mL (≈ 0.151 µM); with Aspergillus fumigatus, 32 µg/mL (≈ 77.2 µM).

The record behind these values is ChEMBL document CHEMBL2016536, “New triazole derivatives as antifungal agents: synthesis via click reaction, in vitro evaluation and molecular docking studies” (2012).
